Literature values as cited in US7407949B2, “Benzamide derivatives as oxytocin agonists and vasopressin antagonists” (priority 2003, dated 2008).

Molecular target: T1, V1a vasopressin receptor (Homo sapiens, UniProt P37288)
T1 construct: host or cells: patients (in vivo clinical study)
Details: dysmenorrhea patients, compared to placebo

T1 sequence (P37288 whole entry): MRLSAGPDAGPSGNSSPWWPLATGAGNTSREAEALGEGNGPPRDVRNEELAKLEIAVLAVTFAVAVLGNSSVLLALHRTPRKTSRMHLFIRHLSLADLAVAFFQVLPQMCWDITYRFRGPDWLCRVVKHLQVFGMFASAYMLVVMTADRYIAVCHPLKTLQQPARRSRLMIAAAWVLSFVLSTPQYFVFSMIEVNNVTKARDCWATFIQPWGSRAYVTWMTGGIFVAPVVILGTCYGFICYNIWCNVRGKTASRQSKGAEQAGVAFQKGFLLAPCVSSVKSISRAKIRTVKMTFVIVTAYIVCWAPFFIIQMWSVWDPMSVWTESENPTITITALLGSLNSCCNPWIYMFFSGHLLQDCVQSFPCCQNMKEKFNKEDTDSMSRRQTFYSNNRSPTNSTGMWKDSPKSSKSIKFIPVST

**Q.** Which “amount of additional pain-killer taken” value does the source give for COc1ccc(S(=O)(=O)N2c3ccc(Cl)cc3[C@](O)(c3ccccc3Cl)[C@@H]2C(=O)N2CCC[C@H]2C(N)=O)cc1OC [SR49059] here?
**A.** dose-related decrease in the amount of additional pain-killer taken

**Q.** And the pain?
**A.** dose-related decrease in pain
